Test results reported in patent US20230234920A1, “Azirine Containing Compounds as Anti-Angiogenesis Agents and a Process for the Preparation Thereof” (COUNCIL OF SCIENTIFIC & INDUSTRIAL RESEARCH, priority 2020, published 2023).

Legend:
HUVECs [1] = assay: Capillary-like tube formation assay (tubulogenesis); assay type: cell-based, human; conditions: for IC50: Homo sapiens, HUVEC, endothelial tubule network assay, anti-angiogenic activity, read-out: IC50 value; for tubule formation: 6 h
Procedure: FIG. 2 represents effect of Compound 1 on capillary tube formation of HUVECs. Endothelial cells in Matrigel were incubated with ECM basal medium in the presence of compound 1 at the indicated concentrations for 6 h. Cell viability was assessed by Calcein-AM dye added few min. before the completion of 6 h. then photographs at 10×magnification were taken using an inverted microscope. The tubule length of HUVECs was quantified by Leica QWin software. Tubule network formation is expressed as a percentage of that vehicle (0.1% DMSO) treated cells (control).
FIG. 9 represents effect of racemic mixture (chiral isomer 1-1 and chiral isomer 2-1) of Compound 1 on capillary tube formation of HUVECs. Endothelial cells seeded in matrigel were incubated at the indicated concentrations of compound 1 racemic mixtures (1-1 and 2-1) with ECM basal medium for 6 h. Calcein-AM treatment was added to the ECs few minutes before completion of 6 h and pictures were captured using an inverted microscope at 10×magnification. The tubular structures of HUVECs were measured using Leica QWin software and tubulogenesis was expressed as a % of that vehicle (0.1% DMSO) treated cells (control) well.
HUVEC cells were incubated with or without sunitinib (20 nM) for 6 h at indicated concentrations of chiral isomers of Compound 1 (1-1 and 2-1). Photographs were taken using an inverted microscope at 10×magnification after Calcein-AM treatment to the ECs few minutes before completion of 6 h. The tubule length of HUVECs was quantified by Leica QWin software represented as a % of that vehicle (0.1% DMSO) treated cells (control) well.
To examine the effect of Compound 1 on angiogenesis, capillary tube formation assay was performed on regular or reduced growth factor Matrigel, taking VEGF (50 ng/mL) treated cells as a positive control and sunitinib (50 nM) as a negative control (FIG. 2). HUVECs seeded onto the matrigel with compound 1 at different concentrations of (10 μM, 5 μM, 1 μM, 800 nM, 500 nM, 250 nM, 125 nM, 75 nM, 50 nM, 25 nM and 10 nM) were incubated for six hours.
HUVECs (Human Umbilical Vein Endothelial Cells) were seeded onto the pre-coated matrigel (CORNING; 354230) in 96 wells plate at the rate of 11000 cells/well in incomplete ECM basal medium. Control group received vehicle, VEGF at 50 ng/mL as a positive and sunitinib at 50 nM as a negative control were used. Compound 1 at different dose concentrations (10 μM, 5 μM, 1 μM, 800 nM, 500 nM, 250 nM, 100 nM, 75 nM, 50 nM and 25 nM) were employed on seeded HUVECs in incomplete medium. Post 6 h of incubation Calcein-AM (Invitrogen) was added to all the respective groups and then the tubule pattern was observed and photographs were taken using an inverted fluorescent microscope (DM 6000, Leica Microsystems, USA). Relative tubule lengths were measured using Leica Q-Win software version 3.5.1. (Leica Microsystems, Switzerland).

chick CAM = assay: CAM (chick chorio-allantoic membrane) assay; assay type: in vivo; conditions: 2 μM
Procedure: (A) Chick CAM assays were used to observe the effect of Compound 1 on angiogenesis in vivo. 1 mm^2 window was made in 8 days old chicken eggs to expose the CAM, and a gelatin disc ([…]) treated with vehicle (0.1% DMSO), sunitinib and Compound 1 at a indicated concentrations were placed on the CAM surface. Post 4 days of incubation, the discs and associated CAM were photographed and excised out, for hemoglobin estimation by drapkin's reagent. (B) Blood vessel density was calculated and Hb. concentration was measured and representative graph was plotted for the control and treatment group and data are represented as mean±SEM with significant difference from control at *p<0.05, **p<0.01 and ***p<0.001.
The eggs were incubated horizontally for 3 days at 37° C. in a 60% humidified atmosphere, using a hybridization incubator (combi-SV 12) with one hour scheduled rotation. Post 3 days of incubation, 2-3 mL of albumin was aspirated from the acute pole of the egg to create false air sac directly over the CAM. Post fertilization (Day 8), a fine blade was used to make an approximate 0.5 cc square incision on the eggshell under sterile conditions and the eggshell window fragment was removed to access the CAM beneath. A piece of gelatin sponge embedded in Compound 1 (500 nM and 250 nM) and sunitinib (2 μM) individually were placed on the CAM of the chicken embryo and incubated for 12 days. Sterile parafilm tape was used to seal back the window and the eggs were further incubated without the rotation setting. After 12 days of incubation the CAM integration was assessed by visual inspection and photographed with a digital camera (Canon EOS); the CAM membrane along with gelatin sponge were harvested and its hemoglobin (Hb.) estimation was done by Drabkin's method according to the manufacturer's protocol (Sigma, St. Louis, Mo.). Absorbance was measured at 540 nm and hemoglobin concentration was calculated.

HCT116 colon tumor = HCT116 colon tumor model in nude mice; assay type: in vivo
Procedure: FIG. 12 represents Compound 1 inhibited tumor growth in vivo. Tumor sizes were recorded every alternate day by Vernier caliper measurements and calculated as [4/3*[…]*(length/2)*(width/2)]. (A) Nude mice with induced HCT116 tumor were given vehicle to the control group, sunitinib at (40 mg/kg) as a standard drug given orally and Compound 1 at (25 mg/kg) through IP route for 21 days and tumor regression was calculated for all groups. (B) Nude Mice with induced HCT116 colon tumor were given both, sunitinib and Compound 1 at (25 mg/kg) intra-muscularly for 15 days after attaining a tumor size of 100 mm^3, tumor volume reduction for treated groups were calculated and compared with control. Data are expressed as means±S.E.M. (6 mice/group) with significant difference compared with control at p<0.0001.
HCT 116 (Human colon cancer cell line) cells were trypsinised and the pellet was dissolved in ice chilled 1×PBS. HCT 116 cells suspension to a concentration of (1*10^6) cells in 50 μL PBS solution, were left on ice with occasional agitation. Mice were anaesthetized with ketamine: xylazine (100:10 mg/kg), abdominal side area was shaved and sterilized using 70% ethanol. 50 μL of cell suspension was injected slowly subcutaneously to all the mice. After 2 days, booster dose of tumor cells was injected to all mice as performed previously. The growth of the tumor was measured by using vernier caliper on day 2, 4, 6, 8, 10, 12, 14, 16 18, 20, 23 and presented in the form of tumor volume (mm^3)=[4/3*π*(long axis/2)*(short axis/2)]. After attaining a volume of 100 mm^3 of tumor size, all mice were distributed equally (n=6−8) in 3 groups of controls received vehicle (Olive oil). Sutent (25 mg/kg) as a positive control was given orally and Compound 1 (25 mg/kg) dissolved in olive oil was injected intra-muscularly for 15 days and the tumor size regression was measured on every alternate day as described previously. Post 15 days of treatment, mice from all groups were sacrificed and tumor was excised out and processed further for immunohistochemistry and molecular analysis.

HUVECs [2] = assay: Wound healing (scratch) migration assay; assay type: cell-based, human; conditions: 50 ng/mL, positive control
Procedure: FIG. 4 represents In vitro wound closure assay showing effect of Compound 1 migration of HUVECs. (A) ECs were incubated with 2.5% FBS in the presence of VEGF, sunitinib and Compound 1 at the indicated concentrations for 24 h after linear scratched wounds were created in the confluent cells. Post treatment photographs were taken at 0 hr, 12 h and 24 h using an inverted microscope at 10×magnification. (B) Data were quantified using Image J software and graphs were plotted by calculating the % migration of that vehicle treated cells (control). Compound 1 inhibits the wound closure by ECs in a dose dependent manner. The values represent the mean±SEM from (n=3) independent experiments with significant difference compared from control at *p<0.05.
As per previous reports, some anti-angiogenic compounds also show anti-migratory effect by modulating the expression of proteins responsible for blood vessels formation. A Scratch was made to the confluent endothelial cells containing VEGF (50 ng/mL) and sunitinib (50 nM) as a positive and negative control respectively and Compound 1 at 250 nM and 125 nM as a test compound. […] This might contribute to its potent anti-angiogenic effect.
Endothelial cells were grown inside 6-well plate at a confluency rate of 90%. And then with the help of 200 μL tip a straight line scratch was made in the middle of the grown ECs. After giving a gentle wash with 1×PBS, control group received vehicle in 2.5% FBS media. VEGF at 50 ng/mL as a positive control and sunitinib at 50 nM concentration was used as a negative control. Compound 1 at a dose concentration of 250 nM and 125 nM were used onto the wounded cells to observe its anti-migratory effect. After 0 h, 12 h and 24 h of post treatment the wound closure area was observed and micrographed using an inverted microscope (Olympus, Centre Valley, Pa., USA) and were analysed by Image J software. Control well at 100% was used to express inhibition percentage and the assay was performed for three-five times independently.

Q: For CCOC(=O)C1N=C1CCc1ccc(OC)c(OC)c1 (centres unmarked) [Compound 34, Ethyl 3-(3,4-dimethoxyphenethyl)-2H-azirine-2-carboxylate], which IC50 (HUVECs [1]) is on record?
A: 250 nM

Q: What about the melting point of the same compound?
A: 55 to 57 °C

Q: Which IC50 (HUVECs [1]) does the source give for CCOC(=O)C1N=C1/C=C/c1ccc(N(C)C)cc1 (centres unmarked) [Compound 46, Ethyl (E)-3-(4-(dimethylamino)styryl)-2H-azirine-2-carboxylate] here?
A: 500 nM

Q: And the melting point?
A: 119 to 121 °C

Q: For Sunitinib Maleate [reference compound], which tubule formation (HUVECs [1]; 20 nM) is on record?
A: 40%

Q: What about the tubule formation (HUVECs [1]; 50 nM) of the same compound?
A: 25%

Q: And the hemoglobin content (chick CAM)?
A: 100 µg/mL

Q: And the “growth of HCT116 cells xenografts” value (HCT116 colon tumor; 25 mg/kg, 15 days)?
A: powerful inhibitory effect

Q: And the tumor volume (HCT116 colon tumor; 40 mg/kg orally for 21 days, vs vehicle)?
A: progressive significant decrease in tumor volume

Q: What about the tumor reduction (HCT116 colon tumor; in comparison to vehicle treated control group, end of experiment) of the same compound?
A: 54.58%

Q: With VEGF [reference compound] as the compound, how does the wound closure (HUVECs [2]) read?
A: 90%
